# Measured values as given in PMC10178204, “Peptaibol Analogs Show Potent Antibacterial Activity against Multidrug Resistant Opportunistic Pathogens” (International Journal of Molecular Sciences, 2023).
# “And” between values parts separate entries of the source, which are not always exact repeats. Equal entries are not always repeated. Non-standard residues stand in square brackets, D forms with d. Residues, ends and D or L forms follow the SMILES beside them. *: point of attachment. Leu(ol) = CC(C)C[C@H](N)CO; Octanoyl = CCCCCCCC(=O)*; Aib = CC(C)(N)C(=O)O
# Key:
# [1] = tested on: blood agar plate (Columbia CNA Agar); assay: Hemolysis on blood agar plate; settings: 50 μg spotted on blood agar, 35 ± 2 °C, 24 h
# Procedure, shortened: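 Peptides (50 μg, from 25 mg/mL DMSO solution) spotted on Columbia CNA blood agar, incubated at 35 ± 2 °C for 24 h. Hemolysis zone diameter measured visually, averaged over triplicates. Triton X-100 positive, DMSO negative control.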
# [2] = tested on: P. aeruginosa 506/99 (VIM-2); settings: MHB, 5 × 10^5 CFU/mL, 18 h, 35 °C, triplicate
# Procedure, shortened: (§1)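 Peptides came from DMSO stocks of 25 mg/mL. Strains were clinical MDR isolates producing metallo-β-lactamase (P. aeruginosa) or class D carbapenemase (A. baumannii).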
# [3] = tested on: S. aureus ATCC 43300 (MRSA); settings: MHB, 5 × 10^5 CFU/mL, 18 h, 35 °C, triplicate
# [4] = tested on: A. baumannii SI-12 (OXA-23); settings: MHB, 5 × 10^5 CFU/mL, 18 h, 35 °C, triplicate
# Procedure, shortened: as §1
# [5] = tested on: A. baumannii SI-310 (OXA-24); settings: colistin-resistant isolate; MHB, 5 × 10^5 CFU/mL, 18 h, 35 °C, triplicate
# Procedure, shortened: as §1
# [6] = tested on: P. aeruginosa VR-143/97 (VIM-1); settings: MHB, 5 × 10^5 CFU/mL, 18 h, 35 °C, triplicate
# Procedure, shortened: as §1
# [7] = tested on: A. baumannii SI-648 (OXA-23, OXA-51-like); settings: MHB, 5 × 10^5 CFU/mL, 18 h, 35 °C, triplicate
# Procedure, shortened: as §1
# [8] = tested on: P. aeruginosa 101/1477 (IMP-1); settings: MHB, 5 × 10^5 CFU/mL, 18 h, 35 °C, triplicate
# Procedure, shortened: as §1
# [9] = tested on: P. aeruginosa VA-182/00 (VIM-2); settings: MHB, 5 × 10^5 CFU/mL, 18 h, 35 °C, triplicate
# Procedure, shortened: as §1
# Escherichia coli CCUGT = settings: MHB, 5 × 10^5 CFU/mL, 18 h, 35 °C, triplicate
# Procedure, shortened: (§2)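 Broth microdilution in Mueller–Hinton broth, run in triplicate, inoculum 5 × 10^5 CFU/mL per CLSI M07-A10; MIC and MBC both determined. Peptides dissolved in DMSO at 25 mg/mL as stock.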
# [10] = tested on: Staphylococcus aureus ATCC 25923; settings: MHB, 5 × 10^5 CFU/mL, 18 h, 35 °C, triplicate
# Procedure, shortened: as §2
# [11] = tested on: Klebsiella pneumoniae ATCC 13833; settings: MHB, 5 × 10^5 CFU/mL, 18 h, 35 °C, triplicate
# Procedure, shortened: as §2
# [12] = tested on: reference Gram-positive and Gram-negative strains
# Procedure, shortened: as §2
# [13] = tested on: Acinetobacter baumannii ATCC 17978
# Procedure, shortened: as §2
# [14] = tested on: Pseudomonas aeruginosa ATCC 27853; settings: MHB, 5 × 10^5 CFU/mL, 18 h, 35 °C, triplicate
# Procedure, shortened: as §2
# [15] = tested on: Bacillus subtilis ATCC 6633; settings: MHB, 5 × 10^5 CFU/mL, 18 h, 35 °C, triplicate
# Procedure, shortened: as §2
# [16] = tested on: Enterococcus faecalis ATCC 29212; settings: MHB, 5 × 10^5 CFU/mL, 18 h, 35 °C, triplicate
# Procedure, shortened: as §2
# [17] = tested on: Streptococcus pyogenes ATCC 12344; settings: MHB, 5 × 10^5 CFU/mL, 18 h, 35 °C, triplicate
# Procedure, shortened: as §2
# [18] = MHB, 5 × 10^5 CFU/mL, 18 h, 35 °C, triplicate
compound,measurement,setting,value
"CCCCCCCC(=O)NC(C)(C)C(=O)N[C@@H](CCCCN)C(=O)N[C@@H](CC(C)C)C(=O)NC(C)(C)C(=O)N[C@@H](CCCCN)C(=O)N[C@@H](CCCCN)C(=O)N[C@@H](CC(C)C)C(=O)NC(C)(C)C(=O)N[C@@H](CCCCN)C(=O)N[C@H](C(=O)N[C@H](CO)CC(C)C)[C@@H](C)CC [Peptide 7, 1-Oct-Aib-Lys-Leu-Aib-Lys-Lys-Leu-Aib-Lys-Ile-Lol] (Octanoyl-[Aib]KL[Aib]KKL[Aib]KI[Leu(ol)])",Hemolytic activity (in words),[1],non-hemolytic
same,MBC P. aeruginosa 506/99 (VIM-2),[2],8 µg/mL
same,MIC P. aeruginosa 506/99 (VIM-2),[2],8 µg/mL
same,MBC S. aureus ATCC 43300 (MRSA),[3],8 µg/mL
same,MIC S. aureus ATCC 43300 (MRSA),[3],4 µg/mL
same,MBC A. baumannii SI-12 (OXA-23),[4],4 µg/mL
same,MIC A. baumannii SI-12 (OXA-23),[4],2 µg/mL
same,MBC A. baumannii SI-310 (OXA-24),[5],4 µg/mL
same,MIC A. baumannii SI-310 (OXA-24),[5],4 μg/mL and 4/4 μg/mL
same,MBC P. aeruginosa VR-143/97 (VIM-1),[6],8 µg/mL
same,MIC P. aeruginosa VR-143/97 (VIM-1),[6],8 µg/mL
same,"MBC A. baumannii SI-648 (OXA-23, OXA-51-like)",[7],4 µg/mL
same,"MIC A. baumannii SI-648 (OXA-23, OXA-51-like)",[7],2 µg/mL
same,MBC P. aeruginosa 101/1477 (IMP-1),[8],8 µg/mL
same,MIC P. aeruginosa 101/1477 (IMP-1),[8],8 µg/mL
same,MBC P. aeruginosa VA-182/00 (VIM-2),[9],8 µg/mL
same,MIC P. aeruginosa VA-182/00 (VIM-2),[9],8 µg/mL
same,MBC Eco,Escherichia coli CCUGT,16 µg/mL
same,MIC Eco,Escherichia coli CCUGT,16 µg/mL
same,MBC Sau,[10],32 µg/mL
same,MIC Sau,[10],16 µg/mL
same,MBC Kpn,[11],16 µg/mL
same,MIC Kpn,[11],16 µg/mL
same,lowest MIC,[12]; lowest value over the eight reference strains,2 µg/mL
same,"MIC range, all tested bacterial strains",[12]; reference panel,2 to 16 µg/mL
same,MBC Aba,[13]; [18],16 µg/mL
same,MIC Aba,[13]; [18],2 µg/mL
same,"MIC against A. baumannii, in molar units",[13]; corresponding to 2 and 8 μg/mL,1.8 to 7.2 µM
same,MBC Pae,[14],> 16 µg/mL
same,MIC Pae,[14],8 µg/mL
same,MBC Bsu,[15],16 µg/mL
same,MIC Bsu,[15],2 µg/mL
same,MBC Efa,[16],8 µg/mL
same,MIC Efa,[16],4 µg/mL
same,MBC Spy,[17],8 µg/mL
same,MIC Spy,[17],2 µg/mL
